In patent US20020025314A1, “Homeopathic compositions for the treatment of viral and metabolic deseases” (priority 1992, published 2002):

How the values were obtained:
[1] = test system: patient presenting with hyperthyroidism due to multinodular thyroid hyperplasia, and morning allergic rhinitis; test: Case No. 2: TSH / free T4 and allergic rhinitis in a patient with hyperthyroidism; type: in vivo, human; conditions: for course of hyperthyroidism / thyroid hormone level under treatment: a few days of Basdene, 10 days of Neomercazole; for TSH: normal 0.2 to 4; for T4f: normal 10 to 25
From the text: A patient presenting with hyperthyroidism due to multinodular thyroid hyperplasia, and morning allergic rhinitis.
The normal levels are 0.2 to 4 for TSH and 10 to 25 for T4f. The TSH is abnormally low and the free T4 abnormally high. The patient receives treatment with a synthetic thyroid inhibitor, namely Basdene 9 on its own, starting on February 22, at increasing doses of 1 tbl on the 1st day, 2 tbl on the 2nd day and then 3 tbl per day. on 3 March TSH: 0.02
On March 7, the patient is seen again by the consultant and, in place of Basdene®, Neo-mercazole® is prescribed at doses of 3 tbl 3 times a day:
On March, 20 the patient is seen again and the following is added to the Neo-mercazole treatment for the allergic rhinitis:
Natrium muriaticum 6DH, 3 tbl/1 for 7 days, then
Natrium muriaticum 4CH, 3 granules/1 for 15 days.
In order to know whether it is the Natrium muriaticum or the Neomercazole 9 which has normalized the thyroid functions, the Neo-mercazole® is suddenly withdrawn, which, if it is the Neo-mercazole® which has lowered the T4f, should have the effect of raising it immediately to 30, and the regular administration of Natrium muriaticum 4CH is continued on April 13.
Natrium muriaticum 6DH: 3tbl/day from March 20 to April 11, then Natrium muriaticum 4CH: 3 granules/day from April 11 to April 28. On April 28, the patient is seen again by the consultant and the prescribed dose of Natrium muriaticum is further modified, being increased to Natrium muriaticum 5CH: 3 granules a day. The Neo-mercazole® was of course never restarted. The effect of this change in doses of Natrium muriaticum is to further lower the thyroid hormone:
The following dose of Natrium Muriaticum 5CH is still continued from this time on: 3 granules a day.
There was no cancer on the operated part. On August 1 the result of this operation is a T4f of 13.8, which is now near the lower limit of the norm (the norm being 10 to 25). A tendency towards hypothyroidism might be feared.

[2] = test system: child suffering from juvenile chronic polyarthritis; test: Case No. 3: clinical course of juvenile chronic polyarthritis; type: in vivo, human; conditions: 1 tbl of 250 mg a day, before homeopathic treatment; disease worsens
[3] = on 17 March, after 10 days of Neo-mercazole 3 tbl 3 times a day

Row | Structure (SMILES) | course of hyperthyroidism / thyroid hormone level under treatment [1] | TSH ([1]; on 3 March, Basdene on its own from February 22, up to 3 tbl per day, 0.02 before treatment) | T4f ([1]; on 3 March, Basdene on its own from February 22, up to 3 tbl per day, 35 before treatment) | suppression of polyarticular symptoms [2] | TSH [1, 3] | T4f [1, 3]
1 | Oc1cc(Cc2ccccc2)nc(S)n1 [Basdene] | remained identical and even become slightly worse | 0.02 | 36.8 |  |  | 
2 | COc1ccc2cc([C@H](C)C(=O)O)ccc2c1 [Naprosyn] |  |  |  | not sufficient to suppress the symptoms |  | 
3 | CCOC(=O)n1ccn(C)c1=S [Neo-mercazole] | no improvement |  |  |  | 0.02 | 33.8
